Here are results for 24 molecules from US20220370453A1 (Storm Therapeutics Ltd, priority 2019, published 2022).

Experiment [1] addresses T1, BCDIN3D (Homo sapiens, UniProt Q7Z5W3).
T1 sequence (Q7Z5W3 1-292): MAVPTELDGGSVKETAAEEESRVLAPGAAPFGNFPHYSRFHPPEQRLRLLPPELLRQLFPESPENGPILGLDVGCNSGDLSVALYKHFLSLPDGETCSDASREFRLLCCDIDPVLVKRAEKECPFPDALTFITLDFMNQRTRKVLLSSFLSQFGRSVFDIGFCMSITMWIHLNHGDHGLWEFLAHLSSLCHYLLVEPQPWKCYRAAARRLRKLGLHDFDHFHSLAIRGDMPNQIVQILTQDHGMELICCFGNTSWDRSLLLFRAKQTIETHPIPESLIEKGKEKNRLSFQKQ
Description: BCDIN3D IC50 RFMS (RapidFire) assay with mini-helix. The settings on record: 25 nM enzyme. It counts as biochemical. As to the method:
The following General Methods details the assay conditions for the Biological assays.
BCDIN3D IC50 RFMS Assay with Mini-Helix
The enzymatic assay was performed in a 384-well polypropylene plate in assay buffer with 25 mM Tris pH 8.0, 10 mM DTT, 1 mM EDTA, 0.03% BSA in a final assay volume of 20 μL. The enzyme with a final concentration of 25 nM was pre-incubated with the respective compound at 1% DMSO final assay concentration over 10 min at room temperature. The reaction was initiated by addition of 0.2 μM final assay concentration of mini-helix and 6 μM final concentration of SAM as substrates. After a 1 hr incubation at 37° C., the reaction was terminated with 40 μL of stop solution of 7.5% trichloroactetic acid in water containing 112.5 nM D4-SAH and 30 nM ^13C10-SAH used as internal standards. The SAH product concentrations as well as both internal standards were analyzed by a RapidFire High Throughput Mass Spectrometry System (Agilent Technologies, Santa Clara, Calif.) using an AP14000 triple quadrupole mass spectrometer (AB Sciex Framingham, Mass.).

In experiment [2] the target is T1, BCDIN3D. As to the kind of experiment: BCDIN3D InCellPulse thermal stability assay in transfected A549 cells. It counts as cell-based. The conditions noted are these: heat shock 58° C. 15 min. As for the experimental part:
BCDIN3D InCellPulse™ Assay
The thermal stability assay was performed with lipofectamine 3000 transiently transfected A549 using the plasmid pICP-ePL-BCDIN3 Da. This plasmid encodes for BCDIN3D N-terminally fused to a Prolabel (ePL), complementing a split β-Galactosidase Enzyme System InCELL Pulse Technology (InCELL Hunter Detection Kit, DiscoverX/Eurofins, cat: 96-0079L). 20 μl A549 cells (1500 cell/well) were added with a multidrop device to compounds to a final DMSO concentration of 0.6% in 384-well polypropylene plate format in IMDM medium and pre-incubated with the compounds for 1 h at 37° C. and 5% CO2. Subsequently, a heat shock was applied to the entire sealed plate in a 58° C. water bath for 15 min. The plates were cooled to RT, spun down and 25 μl/well of EA Detection Solution at 3.3× (InCELL Hunter Detection Kit) was added per well. 21 μl of the mixture was added to a black 384-well measurement plate (Corning, PS, black, Flat Bottom, #3575), mix for 30 minutes on a plate shaker at RT. Finally, the luminescence was measured with a Perkin Elmer EnVision with 0.2 s measurement time in luminescence mode.

Setting [3] is: mini-helix 0.2 μM and SAM 6 μM as substrates, 1 hr at 37° C.
[4] abbreviates: A549 cells transiently transfected with ePL-BCDIN3D, 1 h pre-incubation.
Where [5] appears, read: mini-helix substrate 0.2 μM, SAM 6 μM.
The mark [6] stands for this setting: transiently transfected A549 cells.

In general, IC50 refers to the midpoint of a concentration-inhibition curve.

On to `Cn1ncc2c(Nc3ccc(F)cc3)nc(NC[C@H](N)c3ccccc3)nc21` [Compound 7.05, N6-[(2R)-2-amino-2-phenyl-ethyl]-N4-(4-fluorophenyl)-1-methyl-pyrazolo[3,4-d]pyrimidine-4,6-diamine], for which the IC50 was 241 nM in experiment [1] (setting [3]) and 169 nM in experiment [2] (setting [4]).
With `Cn1ncc2c(NC34CC(C#N)(C3)C4)nc(NCC3(N)CC3)nc21` [Compound 2.37, 3-[[6-[(1-aminocyclopropyl)methylamino]-1-methylpyrazolo[3,4-d]pyrimidin-4-yl]amino]bicyclo[1.1.1]pentane-1-carbonitrile], the half-inhibitory concentration (IC50) in experiment [1] (setting [5]) turned out to be 8600 nM; in experiment [2] (setting [6]) it was 16500 nM.
The corresponding values for `CC[C@@H](N)CNc1nc(NCc2ccc(C)c(Cl)c2)c2cnn(C)c2n1` [Compound 3.07, 6-N-[(2R)-2-aminobutyl]-4-N-[(3-chloro-4-methylphenyl)methyl]-1-methylpyrazolo[3,4-d]pyrimidine-4,6-diamine] are 299 nM and 664 nM.
`Cn1ncc2c(Nc3cccc(F)c3F)nc(NCC3(N)CC3)nc21` [Compound 2.24, 6-N-[(1-aminocyclopropyl)methyl]-4-N-(2,3-difluorophenyl)-1-methylpyrazolo[3,4-d]pyrimidine-4,6-diamine]: the half-maximal inhibitory concentration (IC50) in experiment [1] (setting [5]) is 2460 nM; in experiment [2] (setting [6]) it was 3500 nM.
Take `Cn1ncc2c(Nc3ccc(C(F)(F)F)cc3)nc(NCC3COCCN3)nc21` (stereo not drawn) [Compound 3.16, 1-methyl-N6-[(morpholin-3-yl)methyl]-N4-[4-(trifluoromethyl)phenyl]-1H-pyrazolo[3,4-d]pyrimidine-4,6-diamine]: the 50% inhibitory concentration (IC50) in experiment [1] (setting [5]) is 9920 nM; in experiment [2] (setting [6]), 60000 nM.
As for `Cn1ncc2c(NCC3CC(F)C3)nc(NC[C@H](N)c3ccccc3)nc21` (stereo partly drawn) [Compound 4.108, N6-[(2R)-2-amino-2-phenyl-ethyl]-N4-[(3-fluorocyclobutyl)methyl]-1-methyl-pyrazolo[3,4-d]pyrimidine-4,6-diamine], the 50% inhibitory concentration (IC50) in experiment [1] (setting [5]) is 288 nM; in experiment [2] (setting [6]), 611 nM.
The corresponding values for `Cn1ncc2c(Nc3ccc(F)c(F)c3)nc(NCC3(N)CC3)nc21` [Compound 2.39, 6-N-[(1-aminocyclopropyl)methyl]-4-N-(3,4-difluorophenyl)-1-methylpyrazolo[3,4-d]pyrimidine-4,6-diamine] are 350 nM and 2130 nM.
Taken in the same sequence, the figures for `Cn1ncc2c(NC(C)(C)C)nc(NCC(N)c3cccc(C4CC4)c3)nc21` (stereo not drawn) [Compound 5.32, N6-[2-amino-2-(3-cyclopropylphenyl)ethyl]-N4-tert-butyl-1-methyl-1H-pyrazolo[3,4-d]pyrimidine-4,6-diamine] were 70 nM and 120 nM.
`Cn1ncc2c(Nc3ccc(F)c(F)c3)nc(NC[C@H](N)c3ccccc3)nc21` [Compound 4.34, N6-[(2R)-2-amino-2-phenyl-ethyl]-N4-(3,4-difluorophenyl)-1-methyl-pyrazolo[3,4-d]pyrimidine-4,6-diamine]: the IC50 in experiment [1] (setting [5]) is 118 nM; in experiment [2] (setting [6]), 162 nM.
Consider `Cn1ncc2c(Nc3ccc(Cl)cc3)nc(NC[C@@H](N)c3ccccc3)nc21` [Compound 4.31, N6-[(2S)-2-amino-2-phenyl-ethyl]-N4-(4-chlorophenyl)-1-methyl-pyrazolo[3,4-d]pyrimidine-4,6-diamine], for which the IC50 in experiment [1] (setting [5]) was 7390 nM; in experiment [2] (setting [6]) it was 60000 nM.
Regarding `Cn1ncc2c(Nc3ccc(Cl)c(Cl)c3)nc(NCC(C)(N)c3ccccc3)nc21` (stereo not drawn) [Compound 4.13, N6-(2-amino-2-phenyl-propyl)-N4-(3,4-dichlorophenyl)-1-methyl-pyrazolo[3,4-d]pyrimidine-4,6-diamine], the half-inhibitory concentration (IC50) worked out at 86.6 nM in experiment [1] (setting [5]) and 258 nM in experiment [2] (setting [6]).
Take `Cn1ncc2c(Nc3cccc(Oc4ccccc4)c3)nc(NCCN)nc21` [Compound 1.04, N6-(2-aminoethyl)-1-methyl-N4-(3-phenoxyphenyl)-1H-pyrazolo[3,4-d]pyrimidine-4,6-diamine]: the 50% inhibitory concentration (IC50) is 1260 nM in experiment [1] (setting [3]) and 1530 nM in experiment [2] (setting [4]).
`Cn1ncc2c(NC(C)(C)C)nc(NCC(N)c3cccnc3)nc21` (stereo not drawn) [Compound 5.08, N6-[2-amino-2-(3-pyridyl)ethyl]-N4-tert-butyl-1-methyl-pyrazolo[3,4-d]pyrimidine-4,6-diamine]: the half-inhibitory concentration (IC50) in experiment [1] (setting [5]) is 615 nM; in experiment [2] (setting [6]) it was 1170 nM.
For `CC(C)Oc1nc(NCC(N)c2ccccc2)nc2c1cnn2C` (stereo not drawn) [Compound 6.04, N′-(1-methyl-4-propan-2-yloxypyrazolo[3,4-d]pyrimidin-6-yl)-1-phenylethane-1,2-diamine], the IC50 came out at 2620 nM in experiment [1] (setting [3]) and 4150 nM in experiment [2] (setting [4]).
On to `Cn1ncc2c(NC(C)(C)C3CCOCC3)nc(NC[C@H](N)c3ccccc3)nc21` [Compound 4.118, N6-[(2R)-2-amino-2-phenyl-ethyl]-1-methyl-N4-(1-methyl-1-tetrahydropyran-4-yl-ethyl)pyrazolo[3,4-d]pyrimidine-4,6-diamine], for which the IC50 in experiment [1] (setting [5]) was determined as 2150 nM; in experiment [2] (setting [6]), 2500 nM.
The corresponding values for `Cn1ncc2c(NC3CC(C#N)C3)nc(NC[C@H](N)c3ccccc3)nc21` (stereo partly drawn) [Compound 4.91, 3-[[6-[[(2R)-2-amino-2-phenyl-ethyl]amino]-1-methyl-pyrazolo[3,4-d]pyrimidin-4-yl]amino]cyclobutanecarbonitrile] are 129 nM and 263 nM.
Consider `Cn1ncc2c(Nc3ccccc3)nc(NCC3(N)CC3)nc21` [Compound 2.11, 6-N-[(1-aminocyclopropyl)methyl]-1-methyl-4-N-phenylpyrazolo[3,4-d]pyrimidine-4,6-diamine], for which the IC50 in experiment [1] (setting [5]) worked out at 490 nM; in experiment [2] (setting [6]) it was 2890 nM.
On to `Cn1ncc2c(Nc3ccc(C(F)(F)F)cc3)nc(NCC3(N)CC3)nc21` [Compound 2.44, 6-N-[(1-aminocyclopropyl)methyl]-1-methyl-4-N-[4-(trifluoromethyl)phenyl]pyrazolo[3,4-d]pyrimidine-4,6-diamine], for which the IC50 came out at 56.5 nM in experiment [1] (setting [5]) and 329 nM in experiment [2] (setting [6]).
Taken in the same sequence, the figures for `Cn1ncc2c(Nc3ccc(Cl)cc3)nc(NC[C@H](N)c3ccccc3)nc21` [Compound 4.30, N6-[(2R)-2-amino-2-phenyl-ethyl]-N4-(4-chlorophenyl)-1-methyl-pyrazolo[3,4-d]pyrimidine-4,6-diamine] were 28.6 nM and 62.6 nM.
Take `Cn1ncc2c(NCC3CC3(F)F)nc(NC[C@H](N)c3ccccc3)nc21` (stereo partly drawn) [Compound 4.61, N6-[(2R)-2-amino-2-phenyl-ethyl]-N4-[(2,2-difluorocyclopropyl)methyl]-1-methyl-pyrazolo[3,4-d]pyrimidine-4,6-diamine]: the IC50 is 266 nM in experiment [1] (setting [5]) and 378 nM in experiment [2] (setting [6]).
Taken in the same sequence, the figures for `Cn1ncc2c(Nc3ccc(C#N)cc3)nc(NCC3(N)CC3)nc21` [Compound 2.31, 4-[[6-[(1-aminocyclopropyl)methylamino]-1-methylpyrazolo[3,4-d]pyrimidin-4-yl]amino]benzonitrile] were 976 nM and 8240 nM.
Taken in the same sequence, the figures for `Cn1ncc2c(NC(C)(C)C)nc(NCC(N)c3ccccc3)nc21` (stereo not drawn) [Compound 4.50, 6-N-(2-amino-2-phenylethyl)-4-N-tert-butyl-1-methylpyrazolo[3,4-d]pyrimidine-4,6-diamine] were 196 nM and 871 nM.
As to `Cn1ncc2c(NC(C)(C)C)nc(NCC(N)c3ccccc3Br)nc21` (stereo not drawn) [Compound 5.20, N6-[2-amino-2-(2-bromophenyl)ethyl]-N4-tert-butyl-1-methyl-pyrazolo[3,4-d]pyrimidine-4,6-diamine], the IC50 in experiment [1] (setting [5]) was 609 nM; in experiment [2] (setting [6]) it was 1120 nM.
On to `Cn1ncc2c(Nc3ccc(Cl)c(Cl)c3)nc(NCC3(N)CC3)nc21` [Compound 2.40, 6-N-[(1-aminocyclopropyl)methyl]-4-N-(3,4-dichlorophenyl)-1-methylpyrazolo[3,4-d]pyrimidine-4,6-diamine], for which the values for the 50% inhibitory concentration (IC50) in experiment [1] (setting [5]) and in experiment [2] (setting [6]) were 33.3 nM and 234 nM, respectively.
